3 molecules from ChEMBL document CHEMBL1124706, “Synthesis, antiretrovirus effects, and phosphorylation kinetics of 3'-isocyano-3'-deoxythymidine and 3'-isocyano-2',3'-dideoxyuridine” (1990) can be followed below.

Type in all cases: functional
Assay [1] deals with MT4. Put plainly: Cytopathogenicity against HIV-2 induced replication in MT-4 cells was determined. The note with it: Homo sapiens, read-out: ED50 (the source's name). Background: Damage to the host cells serves as the signal in cytopathic effect assays.
Assay [2] relates to MT4. Put plainly: Cytotoxic dose to reduce the viability of MT-4 cells by 50 % was determined. The note with it: Homo sapiens, read-out: CD50 (the source's name).
Assay [3] in a line: Ratio of CD50 value to that of ED50 value was determined and expressed as selectivity index.
The test system of assay [4] is MT4. Put plainly: Cytopathogenicity against HIV-1 induced, replication in MT-4 cells was determined. The note with it: Homo sapiens, read-out: ED50 (the source's name).

Bounds are passed on as bounds.

As for `[C-]#[N+]C1CC(n2cc(C)c(=O)[nH]c2=O)OC1CO` (configuration not stated), the EC50 with MT4 [1] and in the assay on MT4 [4] was > 800 nM each time. Further, the CC50 in the assay with MT4 [2] came out at 0.88 µM. Besides, the Selectivity index in assay [3] was < 1.1.

With `Cc1cn([C@H]2C[C@H](N=[N+]=[N-])[C@@H](CO)O2)c(=O)[nH]c1=O` [ZIDOVUDINE], the EC50 with MT4 [1] and with MT4 [4] was 4 nM each time. Besides, in the assay on MT4 [2], the CC50 was 6.3 µM. In assay [3], the Selectivity index was 1580.

Consider `[C-]#[N+]C1CC(n2ccc(=O)[nH]c2=O)OC1CO` (configuration not stated), for which the EC50 in the assay on MT4 [1] and in the assay on MT4 [4] was > 500000 nM each time. Also, the CC50 in the assay with MT4 [2] is ≥ 500 µM. In assay [3], the Selectivity index is < 1.
